Data taken from US20220236254A1, “BITTER TASTE RECEPTOR BLOCKERS AND METHODS OF THEIR IDENTIFICATION” (Firmenich Incorporated, priority 2019, published 2022).

Experiments:
Format in all cases: cell-based
[1] = target: T1, polypeptide identified herein as SEQ ID NO: 2 (hT2R44) (Homo sapiens, UniProt P59541, F252L); test: Bitterness antagonism: PMFs antagonizing limonin on cells expressing the receptor; details: limonin 25 μM
T1 construct: expressed in transfected cells; host or cells: cells expressing a promiscuous G protein (G16g44)
T1 sequence (P59541 1-319 F252L): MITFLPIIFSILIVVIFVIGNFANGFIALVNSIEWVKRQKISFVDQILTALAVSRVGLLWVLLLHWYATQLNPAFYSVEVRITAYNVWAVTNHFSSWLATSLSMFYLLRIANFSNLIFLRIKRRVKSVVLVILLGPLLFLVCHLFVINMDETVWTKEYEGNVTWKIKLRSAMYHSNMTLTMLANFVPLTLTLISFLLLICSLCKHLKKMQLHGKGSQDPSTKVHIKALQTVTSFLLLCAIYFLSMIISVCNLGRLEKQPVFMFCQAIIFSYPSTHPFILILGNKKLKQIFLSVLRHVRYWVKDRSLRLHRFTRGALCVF
Procedure: (§1) Cells expressing a promiscuous G protein (G16g44) were transfected using TransIT-293 (Mirus) with expression vectors encoding 22 functional biter receptor cDNAs, with one receptor per transfection. The cells were transfected directly in 384-well format high-density plates and incubated for 28 hours. Later, cells were loaded with the Ca-specific dye Fluo4-AM. After an incubation of 60 minutes, excess dye is washed off, and cells are stimulated with respective bitter agonists while simultaneously recording changes in intracellular fluorescence using a FLIPR instrument. Bitter agonist and responding receptors were identified and respective stable bitter receptor cell lines were then used in the same assay to perform full dose-response analysis with the respective bitter agonists.
Certain PMFs were tested for their ability to antagonize binding of limonin to cells expressing the polypeptide identified herein as SEQ ID NO: 2.

SEQ ID NO: 1 (hT2R80) = target: T2, SEQ ID NO: 1 (hT2R80) (Homo sapiens, UniProt Q9NYW2); test: Bitter receptor identification, FLIPR calcium assay with bitter agonist; details: concentration range of 12.5 μM to 50 μM; cells expressing SEQ ID NO: 1
T2 construct: expressed in transfected cells; host or cells: cells expressing a promiscuous G protein (G16g44)
T2 sequence (Q9NYW2 1-309): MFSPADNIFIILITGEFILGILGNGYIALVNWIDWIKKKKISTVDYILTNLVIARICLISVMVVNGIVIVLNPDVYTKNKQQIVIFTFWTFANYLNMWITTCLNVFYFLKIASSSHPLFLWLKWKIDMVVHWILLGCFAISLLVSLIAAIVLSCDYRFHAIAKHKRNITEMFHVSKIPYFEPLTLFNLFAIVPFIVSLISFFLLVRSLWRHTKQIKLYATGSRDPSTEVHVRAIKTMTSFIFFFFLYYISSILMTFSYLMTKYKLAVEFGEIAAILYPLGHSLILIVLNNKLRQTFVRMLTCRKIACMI
Procedure: as §1, with “([…])” for “(G16g44)”, “agonists. The above protocol was carried out using limonin as a non-limiting example of a bitter agonist. […] The five expressed receptor proteins correspond to the amino acid sequences identified herein as SEQ ID NO: 1, 2, 3, 4, and 5.” for “agonists.”

SEQ ID NO: 3 (hT2R51) = target: T3, SEQ ID NO: 3 (hT2R51) (Homo sapiens, UniProt P59533, A49P/I296V); test: as above; details: concentration range of 12.5 μM to 50 μM; cells expressing SEQ ID NO: 3
T3 construct: expressed in transfected cells; host or cells: cells expressing a promiscuous G protein (G16g44)
T3 sequence (P59533 1-333 A49P/I296V): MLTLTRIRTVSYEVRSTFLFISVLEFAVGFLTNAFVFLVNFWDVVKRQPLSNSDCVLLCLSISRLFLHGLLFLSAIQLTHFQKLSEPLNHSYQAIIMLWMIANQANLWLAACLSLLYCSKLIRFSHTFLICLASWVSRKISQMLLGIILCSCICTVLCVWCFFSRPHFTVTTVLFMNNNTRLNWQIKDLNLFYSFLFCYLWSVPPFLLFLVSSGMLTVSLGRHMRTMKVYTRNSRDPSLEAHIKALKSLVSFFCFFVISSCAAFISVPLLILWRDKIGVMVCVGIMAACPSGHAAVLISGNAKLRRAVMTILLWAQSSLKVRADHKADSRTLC
Procedure: as §1, with “([…])” for “(G16g44)”, “agonists. The above protocol was carried out using limonin as a non-limiting example of a bitter agonist. […] The five expressed receptor proteins correspond to the amino acid sequences identified herein as SEQ ID NO: 1, 2, 3, 4, and 5.” for “agonists.”

SEQ ID NO: 4 (hT2R65) = target: T4, SEQ ID NO: 4 (hT2R65) (Homo sapiens, UniProt P59542, V32I); test: as above; details: concentration range of 12.5 μM to 50 μM; cells expressing SEQ ID NO: 4
T4 construct: expressed in transfected cells; host or cells: cells expressing a promiscuous G protein (G16g44)
T4 sequence (P59542 1-299 V32I): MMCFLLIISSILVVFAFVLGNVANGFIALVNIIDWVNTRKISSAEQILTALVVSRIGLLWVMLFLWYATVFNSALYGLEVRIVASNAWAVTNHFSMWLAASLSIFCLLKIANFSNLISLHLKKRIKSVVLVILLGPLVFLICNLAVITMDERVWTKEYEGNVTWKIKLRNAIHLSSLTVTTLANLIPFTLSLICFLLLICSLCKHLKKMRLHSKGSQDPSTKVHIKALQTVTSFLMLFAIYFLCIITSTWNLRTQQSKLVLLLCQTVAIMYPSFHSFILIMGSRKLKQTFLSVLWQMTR
Procedure: as §1, with “([…])” for “(G16g44)”, “agonists. The above protocol was carried out using limonin as a non-limiting example of a bitter agonist. […] The five expressed receptor proteins correspond to the amino acid sequences identified herein as SEQ ID NO: 1, 2, 3, 4, and 5.” for “agonists.”

SEQ ID NO: 2 (hT2R44) = target: T5, SEQ ID NO: 2 (hT2R44) (Homo sapiens, UniProt P59541, F252L); test: as above; details: concentration range of 12.5 μM to 50 μM; cells expressing SEQ ID NO: 2
T5 construct: expressed in transfected cells; host or cells: cells expressing a promiscuous G protein (G16g44)
T5 sequence (P59541 1-319 F252L): T1 sequence (P59541 1-319 F252L)
Procedure: as §1, with “([…])” for “(G16g44)”, “agonists. The above protocol was carried out using limonin as a non-limiting example of a bitter agonist. […] The five expressed receptor proteins correspond to the amino acid sequences identified herein as SEQ ID NO: 1, 2, 3, 4, and 5.” for “agonists.”

SEQ ID NO: 5 (hT2R75) = target: T6, SEQ ID NO: 5 (hT2R75) (Homo sapiens, UniProt P59540); test: as above; details: concentration range of 12.5 μM to 50 μM; cells expressing SEQ ID NO: 5
T6 construct: expressed in transfected cells; host or cells: cells expressing a promiscuous G protein (G16g44)
T6 sequence (P59540 1-309): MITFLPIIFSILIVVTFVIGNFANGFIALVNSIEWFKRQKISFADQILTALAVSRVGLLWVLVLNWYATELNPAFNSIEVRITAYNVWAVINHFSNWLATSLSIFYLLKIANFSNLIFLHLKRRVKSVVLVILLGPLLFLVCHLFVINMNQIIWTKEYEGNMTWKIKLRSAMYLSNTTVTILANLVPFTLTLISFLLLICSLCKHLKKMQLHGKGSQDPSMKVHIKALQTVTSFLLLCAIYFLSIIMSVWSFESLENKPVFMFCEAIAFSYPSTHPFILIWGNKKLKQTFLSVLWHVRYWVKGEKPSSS
Procedure: as §1, with “([…])” for “(G16g44)”, “agonists. The above protocol was carried out using limonin as a non-limiting example of a bitter agonist. […] The five expressed receptor proteins correspond to the amino acid sequences identified herein as SEQ ID NO: 1, 2, 3, 4, and 5.” for “agonists.”

[2] = antagonist 200 μM (no antagonist: 98)

SMILES: COc1ccc(-c2oc3cc(OC)c(OC)c(OC)c3c(=O)c2OC)cc1OC
- % Limonin Activation ([1]; antagonist 100 μM (no antagonist: 98)): 77%

SMILES: COc1ccc(-c2oc3c(OC)c(OC)c(OC)c(OC)c3c(=O)c2OC)cc1OC
- % Limonin Activation [1, 2]: 79%

SMILES: COc1ccc(-c2cc(=O)c3c(OC)c(OC)c(OC)c(OC)c3o2)cc1
- % Limonin Activation ([1]; antagonist 50 μM (no antagonist: 98)): 76%

SMILES: COc1ccc(-c2cc(=O)c3c(OC)c(OC)c(OC)c(OC)c3o2)cc1OC
- % Limonin Activation [1, 2]: 74%

SMILES: COc1ccc(-c2cc(=O)c3c(OC)c(OC)c(OC)cc3o2)cc1OC
- % Limonin Activation [1, 2]: 70%

SMILES: COc1cc(-c2cc(=O)c3c(OC)c(OC)c(OC)cc3o2)ccc1O
- % Limonin Activation [1, 2]: 64%

SMILES: CC1(C)O[C@H]2CC(=O)OC[C@]23[C@H]2CC[C@@]4(C)[C@H](c5ccoc5)OC(=O)[C@H]5O[C@]54[C@]2(C)C(=O)C[C@@H]13 [limonin]
- dose response of receptor to bitter agonist (SEQ ID NO: 1 (hT2R80)): positive dose response
- dose response of receptor to bitter agonist (SEQ ID NO: 3 (hT2R51)): positive dose response
- dose response of receptor to bitter agonist (SEQ ID NO: 4 (hT2R65)): positive dose response
- dose response of receptor to bitter agonist (SEQ ID NO: 2 (hT2R44)): positive dose response
- dose response of receptor to bitter agonist (SEQ ID NO: 5 (hT2R75)): positive dose response
